# Target: Angiotensin II receptor
# Experiment: In vitro angiotensin II mesenteric artery receptor binding assay (test 1)
# Details: rat mesenteric artery membrane fraction, 0.2 nM 125I-Ang II, 22°C, 90 minutes
# Procedure: I) In vitro angiotensin II mesenteric artery receptor binding assay
# According to the method (1) by Gunther et al., a membrane fraction was prepared from mesenteric artery of male rat, […] protein equivalent of it and 0.2 nM ^125I-Ang II as well as various concentrations of test compounds were incubated at 22°C for 90 minutes in an incubation buffer (50 mM Tris-HCl, 120 mM NaCl, 5 mM MgCl2. 0.25% bovine serum albumin, pH 7.2) (reaction volume; 200 µl). The incubated was cooled, and the reaction was stopped by addition of ice-cooled phosphate buffer (10 mM phosphate, 140 mM NaCI, pH 7.4, hereinafter referred to as PBS), and then the reaction solution was filtered through a glass fiber filter (Whatman CF/B), the filter was washed, dried, and then the radioactivity of captured ^125I-angiotensin II which bound to the receptor was measured by a γ-counter. Non-specific bound amount was obtained from the reaction in the presence of 1 µM of unlabeled angiotensin II. […] Res., 17:278-286, 1980].
row,Compound,IC50
1,"CCCc1nc2c(=O)n3n(c(=O)c2n1Cc1ccc(-c2ccccc2-c2nn[nH]n2)cc1)CC(C)=C(C)C3 [Compound No. 67, 5,8-dihydro-6,7-dimethyl-2-n-propyl-1-[(2'-(1H-tetrazol-5-yl)biphenyl-4-yl)methyl]-1H-1,3,4a,8a-tetraza-cyclopentanaphthalene-4,9-dione]",14 nM
2,"CCCc1nc2c(=O)n3n(c(=O)c2n1Cc1ccc(-c2ccccc2-c2nn[nH]n2)cc1)C1CCC3(C(=O)N(CCO)CCO)CC1 [Compound No. 239, 4,9-dioxo-5,8-ethano-2-n-propyl-5,6,7,8-tetrahydro-1-[{2'-(1H-tetrazol-5-yl)biphenyl-4-yl}methyl]-1H-1,3,4a,8a-tetraza-cyclopentanaphthalene-5-carboxy-N,N-bis(2-hydroxyethyl)amide]",> 100 nM
3,"CCCc1nc2c(n1Cc1ccc(-c3ccccc3-c3nn[nH]n3)cc1)C(=O)N1CC(CC)=C(CC)CN1C2 [Compound No. 390, 6,7-diethyl-5,8-dihydro-2-n-propyl-1-[{2'-(1H-tetrazol-5-yl)biphenyl-4-yl}methyl]-1H,4H-1,3,4a,8a-tetraza-cyclopentanaphthalene-9-one]",35 nM
4,"CCCc1nc2c(=O)n3n(c(=O)c2[nH]1)C1CCC3(C(C)(C)O)CC1 [Compound No. 323, 5,8-ethano-5-(1-hydroxy-1-methylethyl)-2-n-propyl-5,6,7,8-tetrahydro-1H-1,3,4a,8a-tetraza-cyclopentanaphthalene-4,9-dione]",> 100 nM
5,"CCCc1nc2c(=O)n3n(c(=O)c2n1Cc1ccc(-c2ccccc2-c2nn[nH]n2)cc1)C(C)CCC3c1nc(C)no1 (stereo not shown) [Compound No. 329, 8-methyl-5-(3-methyloxadiazol-5-yl)-2-n-propyl-5,6,7,8-tetrahydro-1-[{2'-(1H-tetrazol-5-yl)biphenyl-4-yl}methyl]-1H-1,3,4a,8a-tetraza-cyclopentanaphthalene-4,9-dione]",65 nM
6,"CCCc1nc2c(=O)n3n(c(=O)c2n1Cc1ccc(-c2ccccc2-c2nnn[nH]2)cc1)C1(COCC(C)O)CCC3CC1 (stereo not shown) [Compound No. 229, 5,8-ethano-8-(2-hydroxypropyl)methoxymethyl-2-n-propyl-5,6,7,8-tetrahydro-1-[{2'-(1H-tetrazol-5-yl)biphenyl-4-yl}methyl]-1H-1,3,4a,8a-tetraza-cyclopentanaphthalene-4,9-dione]",8.7 nM
7,"CCCc1nc2c(n1Cc1ccc(-c3ccccc3-c3nn[nH]n3)cc1)C(=O)N1CC(C)=C(C)CN1C2 [Compound No. 382, 5,8-dihydro-6,7-dimethyl-2-n-propyl-1-[{2'-(1H-tetrazol-5-yl)biphenyl-4-yl}methyl]-1H,4H-1,3,4a,8a-tetraza-cyclopentanaphthalene-9-one]",26 nM
8,"CCCc1nc2c(=O)n3n(c(=O)c2[nH]1)C(C)CCC3C (stereo not shown) [Compound No. 280, 5,8-dimethyl-2-n-propyl-5 6,7,8-tetrahydro-1H-1,3,4a,8a-tetraza-cyclopentanaphthalene-4,9-dione]",4.6 nM
9,"CCCc1nc2c(=O)n3n(c(=O)c2n1Cc1ccc(-c2ccccc2-c2nnn[nH]2)cc1)C(C(=O)NC(C)(C)C)CCC3C (stereo not shown) [Compound No. 209, 4,9-dioxo-5-methyl-2-n-propyl-5,6,7,8-tetrahydro-1-[{2'-(1H-tetrazol-5-yl)biphenyl-4-yl}methyl]-1H-1,3,4a,8a-tetraza-cyclopentanaphthalene-8-carboxy-N-t-butylamide]",58 nM
10,"CCCc1nc2c(=O)n3n(c(=O)c2n1Cc1ccc(-c2ccccc2-c2nn[nH]n2)cc1)C(c1nc(C)no1)CCC3C (stereo not shown) [Compound No. 331, 5-methyl-8-(3-methyloxadiazol-5-yl)-2-n-propyl-5,6,7,8-tetrahydro-1-[{2'-(1H-tetrazol-5-yl)biphenyl-4-yl}methyl]-1H-1,3,4a,8a-tetraza-cyclopentanaphthalene-4,9-dione]",3.9 nM
11,"CCCCc1nc2c(=O)n3n(c(=O)c2n1Cc1ccc(-c2ccccc2-c2nn[nH]n2)cc1)CCCC3 [Compound No. 47, 2-n-butyl-5,6,7,8-tetrahydro-1-[(2'-(1H-tetrazol-5-yl)biphenyl-4-yl)methyl]-1H-1,3,4a,8a-tetraza-cyclopentanaphthalene-4,9-dione]",5.3 nM
12,"CCCCc1nc2c(=O)n3n(c(=O)c2n1Cc1ccc(-c2ccccc2-c2nn[nH]n2)cc1)C1(C(=O)OCC)CCC3CC1 [Compound No. 198, ethyl 2-n-butyl-4,9-dioxo-5,8-ethano-5,6,7,8-tetrahydro-1-[{2'-(1H-tetrazol-5-yl)biphenyl-4-yl}methyl]-1H-1,3,4a,8a-tetraza-cyclopentanaphthalene-8-carboxylate]",> 100 nM
13,"CCCCc1nc2c(n1Cc1ccc(-c3ccccc3-c3nn[nH]n3)cc1)C(=O)N1C3CCC(C)(CC3)N1C2 [Compound No. 443, 2-n-butyl-5,8-ethano-5-methyl-5,6,7,8-tetrahydro-1-[{2'-(1H-tetrazol-5-yl)biphenyl-4-yl}methyl]-1H,4H-1,3,4a,8a-tetraza-cyclopentanaphthalene-9-one]",1.3 nM
14,"CCCCc1nc2c(=O)n3n(c(=O)c2n1Cc1ccc(-c2ccccc2-c2nnn[nH]2)cc1)C(C(=O)NC(C)(C)C)CCC3C (stereo not shown) [Compound No. 210, 2-n-butyl-4,9-dioxo-5-methyl-5,6,7,8-tetrahydro-1-[{2'-(1H-tetrazol-5-yl)biphenyl-4-yl}methyl]-1H-1,3,4a,8a-tetraza-cyclopentanaphthalene-8-carboxy-N-t-butylamide]",29 nM
15,"CCCc1nc2c(=O)n3n(c(=O)c2n1Cc1ccc(-c2ccccc2-c2nn[nH]n2)cc1)CC(CC)=C(CC)C3 [Compound No. 359, 6,7-diethyl-5,8-dihydro-2-n-propyl-5,6,7,8-tetrahydro-1-[{2'-(1H-tetrazol-5-yl)biphenyl-4-yl}methyl]-1H-1,3,4a,8a-tetraza-cyclopentanaphthalene-4,9-dione]",35 nM

# Further lines, results first:
row,IC50,Compound
1,> 100 nM,"CCc1nc2c(n1Cc1ccc(-c3ccccc3-c3nnn[nH]3)cc1)C(=O)N1N(C2)C2(CC)CCC1(CC)CC2 [Compound No. 453, 5,8-diethyl-5,8-ethano-2-ethyl-5,6,7,8-tetrahydro-1-[{2'-(1H-tetrazol-5-yl)biphenyl-4-yl}methyl]-1H,4H-1,3,4a,8a-tetraza-cyclopentanaphthalene-9-one]"
2,34 nM,"CCCCc1nc2c(n1Cc1ccc(-c3ccccc3-c3nnn[nH]3)cc1)CN1C(CO)CCC(C)N1C2=O (stereo not shown) [Compound No. 540, 2-n-butyl-8-hydroxymethyl-5-methyl-5,6,7,8-tetrahydro-1-[{2'-(1H-tetrazol-5-yl)biphenyl-4-yl}methyl]-1H,9H-1,3,4a,8a-tetraza-cyclopentanaphthalene-4-one]"
3,9.1 nM,"C/C=C/c1nc2c(n1Cc1ccc(-c3ccccc3-c3nnn[nH]3)cc1)C(=O)N1N(C2)C2(CC)CCC1(CC)CC2 [compound 521, 5,8-diethyl-5,8-ethano-2-(1-E-propenyl)-5,6,7,8-tetrahydro-1-[{2'-(1H-tetrazol-5-yl)biphenyl-4-yl}methyl]-1H,4H-1,3,4a,8a-tetraza-cyclopentanaphthalene-9-one]"
4,3.2 nM,"CCCCc1nc2c(=O)n3n(c(=O)c2n1Cc1ccc(-c2ccccc2-c2nn[nH]n2)cc1)C(C(=O)OCC)CCC3C (stereo not shown) [compound 167, ethyl 2-n-butyl-4,9-dioxo-5-methyl-5,6,7,8-tetrahydro-1-[{2'-(1H-tetrazol-5-yl)biphenyl-4-yl}methyl]-1H-1,3,4a,8a-tetraza-cyclopentanaphthalene-8-carboxylate]"
5,> 100 nM,"CCc1nc2c(=O)n3n(c(=O)c2n1Cc1ccc(-c2ccccc2-c2nn[nH]n2)cc1)C1(CC)CCC3(CC)CC1 [compound 355, 5,8-diethyl-5,8-ethano-2-ethyl-5,6,7,8-tetrahydro-1-[{2'-(1H-tetrazol-5-yl)biphenyl-4-yl}methyl]-1H-1,3,4a,8a-tetraza-cyclopentanaphthalene-4,9-dione]"
6,> 30 nM,"CCCc1nc2c(=O)n3n(c(=O)c2n1Cc1ccc(-c2ccccc2-c2nn[nH]n2)cc1)C(C(=O)O)CCC3C (stereo not shown) [compound 56, 4,9-dioxo-5-methyl-2-n-propyl-5,6,7,8-tetrahydro-1-[(2'-(1H-tetrazol-5-yl)biphenyl-4-yl)methyl]-1H-1,3,4a,8a-tetraza-cyclopentanaphthalene-8-carboxylic acid]"
7,26 nM,"CCc1nc2c(=O)n3n(c(=O)c2n1Cc1ccc(-c2ccccc2-c2nnn[nH]2)cc1)C1CCC3CC1 [compound 543, 5,8-ethano-2-ethyl-5,6,7,8-tetrahydro-1-[{2'-(1H-tetrazol-5-yl)biphenyl-4-yl}methyl)-1H-1,3,4a,8a-tetraza-cyclopentanaphthalene-4,9-dione]"
8,34 nM,"2-n-butyl-8-hydroxymethyl-5-methyl-5,6,7,8-tetrahydro-1H,4H-1,3,4a,8a-tetraza-cyclopentanaphthalene-9-one [Compound No. 542]"
9,> 100 nM,"CCCCc1nc2c(=O)n3n(c(=O)c2n1Cc1ccc(C(=O)O)cc1)C1CCC3CC1 [compound 544, 2-n-butyl-1-[(4-carboxyphenyl)methyl]-5,8-ethano-5,6,7,8-tetrahydro-1H-1,3,4a,8a-tetraza-cyclopentanaphthalene-4,9-dione]"
10,2.5 nM,"CCCCc1nc2c(n1Cc1ccc(-c3ccccc3-c3nn[nH]n3)cc1)C(=O)N1N(C2)C2CCC1(C)CC2 [Compound No. 447, 2-n-butyl-5,8-ethano-8-methyl-5,6,7,8-tetrahydro-1-[{2'-(1H-tetrazol-5-yl)biphenyl-4-yl}methyl]-1H,4H-1,3,4a,8a-tetraza-cyclopentanaphthalene-9-one]"

# Source: patent EP0609289B1, “IMIDAZOLE DERIVATIVES AND PHARMACEUTICAL COMPOSITIONS CONTAINING THE SAME” (THE UPJOHN COMPANY, priority 1991, dated 1993)
